According to patent publication US20020058694A1, “Ureido and thioureido derivatives of 4-amino-2(5H)-furanones and 4-amino-2(5H)-thiophenones as antitumor agents” (Roche Diagnostics GmbH, priority 1997, published 2002):
≈ marks a conversion by molar mass, not a printed value.

How the values were obtained:
Type in all cases: cell-based
Conditions in all cases: 144 hours of incubation, concentration which causes the death of 50% of cell population
[1] = tested on: HT 29; test: MTT cytotoxicity assay, HT 29 human colon tumor cell line
Description: (§1) The compounds of the invention were tested against three human colon tumor cell lines (HT 29, HCT 116 and LoVo). After 144 hours of incubation of the cells with the compound to be tested, the cytotoxicity is evaluated using the MTT assay (Mosman, T. “Rapid Colorimetric Assay for Cellular Growth and Survival: Application to Proliferation and Cytotoxicity Assay”; J. Immunol. Methods, (1983), 65, 66; Green, L. M., “Rapid Colorimetric Assay for Cell Viability; Application to the Quantitation of Cytotoxic and Growth Inhibitory Lymphokines”, J. Immunol. Methods, (1984), 70, 257-268). The results are expressed as IC50 ([…]), that it the concentration of the tested compound which causes the death of 50% of cell population.

[2] = tested on: HCT 116; test: MTT cytotoxicity assay, HCT 116 human colon tumor cell line
Description: as §1

[3] = tested on: LoVo; test: MTT cytotoxicity assay, LoVo human colon tumor cell line
Description: as §1

Compound | IC50 [1] | IC50 [2] | IC50 [3]
O=C(NC1=CC(=O)OC1)Nc1ccc(Cl)cc1 [Example 2, 4-[N-(4-chlorophenyl)aminocarbonylamino]-2(5H)-furanone] | 0.032 µg/mL (≈ 0.127 µM) | 0.034 µg/mL (≈ 0.135 µM) | 0.01 µg/mL (≈ 0.0396 µM)
CCc1ccc(NC(=O)NC2=CC(=O)OC2)cc1Cl [Example 3, 4-[N-(4-ethyl-3-chlorophenyl)aminocarbonylamino)-2(5H)-furanone] | 0.003 µg/mL (≈ 0.0107 µM) | < 0.01 µg/mL | 0.034 µg/mL (≈ 0.121 µM)
